Columns and labels:
[1] = tested on: rat; settings: 1.2 g/kg/day for 52 consecutive weeks; cited from earlier work
[2] = tested on: normal rat or spontaneously diabetic rat; settings: cited from earlier work
[3] = tested on: SAMP8 mice; assay: Step-through passive avoidance learning experiment; assay type: in vivo, mouse
Description: Aging promoted mouse (SAMP8,3-week-old, male, each group N=8−10) models were divided into a group given a feed (CE-2, manufactured by (LEA Japan, Inc.) containing 0.5% of reduced coenzyme Q10 (containing about 1% oxidized coenzyme Q10) obtained in Production Example 1 and a group given a basic feed (CE-2, manufactured by CLEA Japan, Inc.) alone as a control group. The both groups were allowed a free access to the feed. The dose of reduced coenzyme Q10 obtained from the ingested amount of the feed and the body weight of the animal generally corresponded to 300-500 mg/kg/day.
The effect of reduced coenzyme Q for the learning and memory function was examined by a step-through passive avoidance learning experiment. When SAMP8 mice were placed in a light compartment of an apparatus consisting of two light and dark compartments, they enter the dark compartment since mouse prefers darkness. The mice were taught that the dark compartment was dangerous by applying an electric current (0.5 mA) for 3 sec from the floor of the dark compartment (acquisition trial). […]
To be specific, the mice were placed in the same apparatus again, and the time of stay in the light compartment was measured, based on which the learning, memory function of the mice was compared between with and without ingestion of reduced coenzyme Q in the present invention. […]

[4] = tested on: PC12 cells; assay: Nerve cell protection on hydrogen peroxide-induced cell death (intracellular ATP amount); assay type: cell-based; settings: 25, 50, 100 μg/ml for 24 hr, then 0.06 mM hydrogen peroxide; compared with oxidized coenzyme Q10
Method: As one of the causes of the nerve cell death, active oxygen species produced for various reasons is known. Therefore, a cell death protecting action of reduced coenzyme Q10 when PC12 cells are exposed to hydrogen peroxide was examined. PC12 cells were cultured in Dulbecco's Modified Eagle Medium containing 200 units of penicillin, 0.1 μg/ml streptomycin, and 10% fetal bovine serum under 37° C., 5% CO2 conditions. The cells were plated to a 96 well microplate at 1×10^4 cells/well, and cultured under the conditions of 37° C., 5% CO2. After 24 hr, the medium was removed and substituted with Dulbecco's Modified Eagle Medium containing 200 units of penicillin, […] streptomycin and 0.5% fetal bovine serum and supplemented with reduced coenzyme Q10 and oxidized coenzyme Q10 (25, 50, 100 μg/ml). After 24 hr, the medium was removed, and the cells were exposed to hydrogen peroxide so that the final concentration in the same medium would be 0.06 mM 24 hr later, and cultured under the conditions of 37° C., 5% CO2 for 15 min. The cells were washed 3 times with PBS, and the intracellular ATP amount was measured using an ATP quantify kit (Perkin Elmer) and compared.

[5] = tested on: model mouse with Parkinson's disease; settings: cited from earlier work

COC1=C(OC)C(=O)C(C/C=C(\C)CC/C=C(\C)CC/C=C(\C)CC/C=C(\C)CC/C=C(\C)CC/C=C(\C)CC/C=C(\C)CC/C=C(\C)CC/C=C(\C)CCC=C(C)C)=C(C)C1=O [Oxidized coenzyme Q10, oxidized coenzyme Q10]
toxicity [1]: no toxicity was observed

COc1c(O)c(C)c(C/C=C(\C)CC/C=C(\C)CC/C=C(\C)CC/C=C(\C)CC/C=C(\C)CC/C=C(\C)CC/C=C(\C)CC/C=C(\C)CC/C=C(\C)CCC=C(C)C)c(O)c1OC [reduced coenzyme Q10]
tissue degeneration caused by oxidative stress in the pancreas ([2]; diabetic rat): suppress
amount of 8-hydroxy deoxyguanosine (oxidization marker) in urine ([2]; normal rat or spontaneously diabetic rat): decrease
response latency time (passive avoidance test) ([3]; feed containing 0.5% reduced coenzyme Q10 (300-500 mg/kg/day), after 8 weeks (11-week-old), vs control group): the number of mouse that showed a prolonged response latency time increased
learning and memory disorder-improving effect ([3]; short time administration, feed containing 0.5% reduced coenzyme Q10, 8 weeks): a learning and memory disorder-improving effect was observed
cell death of PC12 cells induced by hydrogen peroxide [4]: significantly prevented

oxidized coenzyme Q
symptom improving effect [5]: shows a symptom improving effect

From patent US20090246186A1, “AGENT FOR IMPROVING NERVOUS SYSTEM CELL FUNCTIONS” (KANEKA CORPORATION, priority 2006, published 2009)
